Legend:
[1] = system: Phakopsora pachyrhizi; assay: Test Example 15 Control Test Against Soybean Rust Fungus (spore germination, 96 well titer plate); assay type: cell-based; details: treatment concentration 1 ppm, 23° C., several hours
Experimental: (§1) The term of “non-treated well” in Test Example 4, Test Example 5, and Test Example 6 represents a well wherein a test was carried out under the same conditions as those described in each Test Example except for dispensing DMSO instead of a diluted solution with DMSO comprising the Present compound. Also, the term of “non-treated” in Test Examples 15 to 17 represents a test which was carried out under the same conditions as those described in each Test Example except for dispensing DMSO instead of a diluted solution with DMSO comprising the Present compound. Also, the term of “non-treated leaf disk” in Test Example 7 represents a leaf disk wherein a test was carried out under the same conditions as those described in the Test Example except for dispensing DMSO instead of a diluted solution with DMSO comprising the Present compound. Also, the term of “non-treated” in Test Example 10 and Test Example 11 means that a diluted solution with water of a formulation comprising the Present compound was not sprayed.
The Present compound was diluted with DMSO to obtain a diluted solution containing 150 ppm of the compound, and 1 μL of the diluted solution was dispensed into a titer plate (96 well), and thereto was then dispensed 149 μL of an aqueous suspension (1.0×10^4/mL) of spores of Phakopsora pachyrhizi to which spores of Phakopsora pachyrhizi were suspended in advance. This plate was cultured at 23° C. for several hours, and then germinated spores of Phakopsora pachyrhizi were counted. As a result, when the treatment concentration was 1 ppm, the number of germinated spores in each well comprising any one of the Present compound 1, 11, 17, 18, 20, 23, 30, 33, 34, 35, 36, 37, 38, 39, 40, 41, 42, 43, 44, 46, 47, 48, 49, 50, 51, 52, 53, 54, 55, 56, 57, 58, 62, 63, 64, 65, 66, 67, 68, 69, 70, 71, 72, 73, 74, 75, 76, 77, 78, 79, 80, 81, 82, 83, 84, 85, 86, 87, 88, 89, 90, 91, 92, 93, 94, 95, 96, 97, 98, 99, 100, 101, or 102 as the test compound was 50% or less relative to the number of germinated spores in the non-treated well.

[2] = system: soybean rust fungus (Phakopsora pachyrhizi) having an amino acid substitution of F129L in a mitochondrial cytochrome b protein; assay: Test Example 7 Control Test Against Soybean Rust (leaf disk); assay type: in vivo; details: 200 ppm, 10 μL per soybean leaf disk (cultivar: Kurosengoku), inoculated after 1 day
Experimental: as §1
A true leaf of a soybean (cultivar: Kurosengoku) was cut into a diameter of 1 cm to prepare each leaf disk. To each well of a 24 well microplate was dispensed 1 mL of an agar medium (agar concentration 1.2%), and then one of said leaf disk was placed on the agar medium in each well. To a mixture of Sorpol (registered trademark) 1200KX (0.5 μL), DMSO (4.5 μL), and xylene (5 μL) was added a DMSO solution (20 μL) comprising a test compound (10000 ppm), and the resulting mixture was mixed. The resulting mixture was diluted with ion exchange water to prepare a mixture comprising a prescribed concentration of the test compound.
The resulting mixture was sprayed into each leaf disk at a ratio of 10 μL per leaf disk. After 1 day, an aqueous suspension of spores of soybean rust fungus (Phakopsora pachyrhizi) having an amino acid substitution of F129L in a mitochondrial cytochrome b protein (1.0×10^5/mL) was inoculated by spraying on each leaf disk. After the inoculation, the microplate was placed into an artificial climate chamber (Lighting: 6 hours, Lights-out: 18 hours, Temperature: 23° C., Humidity: 60%). After 1 day, the leaf disks were air-dried until water droplets on the surfaces of the leaf disks disappeared, and the microplate was placed into the artificial climate chamber again for 12 days. Then, lesion area of soybean rust was investigated. As a result, when the prescribed concentration was 200 ppm, each lesion area of leaf disk treated with any one of the Present compound 9, 10, 11, 13, 14, 15, 16, 17, 18, 20, 32, 33, 34, 35, 36, 37, 38, 39, 40, 42, 43, 44, 47, 48, 49, 50, 51, 52, 53, 55, 56, 57, 58, 62, 63, 64, 65, 66, 67, 68, 69, 70, 71, 73, 74, 75, 76, 77, 78, 79, 80, 81, 82, 83, 84, 85, 86, 87, 88, 89, 90, 91, 92, 93, 94, 95, 96, 97, 98, 99, 100, 101, or 102 as the test compound was 30% or less relative to the lesion area of non-treated leaf disk.

[3] = system: Phakopsora pachyrhizi; assay: Test Example 11 Control Test Against Soybean Rust (pot test, spraying before inoculation); assay type: in vivo; details: 200 ppm foliage spray, soybeans (Kurosengoku), inoculated after 2 to 5 days
Experimental: as §1
A plastic pot was filled with soil, soybeans (cultivar: Kurosengoku) were seeded thereto, and cultured in a greenhouse for 10 to 14 days. The Present compound 9, 10, 11, 13, 14, 15, 17, 18, 20, 21, 22, 23, 26, 27, 33, 34, 35, 36, 37, 38, 39, 40, 41, 42, 43, 44, 46, 47, 53, 54, 55, 56, 57, 58, 66, 67, 68, 69, 70, 71, 73, 74, 75, 76, 77, 78, 79, 80, 81, 82, 83, 84, 85, 86, 87, 88, 89, 90, 91, 92, 93, 94, 95, 96, 97, 98, 99, 100, 101, or 102 formulated according to the method described in the Formulation Example 1 was mixed with water in such a way that the concentration thereof was 200 ppm, and the resulting mixture was sprayed to foliage of the above soybeans so as to adequately adhere onto the surfaces of leaves of the above soybeans. After spraying the mixture, the soybeans were air-dried. After 2 to 5 days, an aqueous suspension of spores of Phakopsora pachyrhizi was inoculated by spraying to the soybeans. After the inoculation, the soybeans were placed in a greenhouse at 23° C. in daytime and at 20° C. in nighttime under a humid condition for 1 to 2 day(s), then cultured in a greenhouse for 12 days, and then a lesion area was investigated. As a result, the lesion area in the soybeans treated with each of the above Present compound was 30% or less relative to the lesion area in the non-treated soybeans.

| Compound | number of germinated spores relative to the non-treated well [1] | lesion area relative to the lesion area of non-treated leaf disk [2] | lesion area relative to the lesion area in the non-treated soybeans [3] |
| --- | --- | --- | --- |
| Cc1ccc(S(=O)(=O)n2ccc(-c3ccc(Cl)cc3)n2)cc1 [compound 1] | ≤ 50% | – | – |
| O=S(=O)(c1ccccc1Cl)n1ccc(-c2cc(F)c(Br)c(F)c2)n1 [compound 11] | ≤ 50% | ≤ 30% | ≤ 30% |
| O=S(=O)(c1ccccc1F)n1ccc(-c2cc(F)c(Br)c(F)c2)n1 [compound 13] | – | ≤ 30% | ≤ 30% |
| O=S(=O)(c1ccc(F)cc1)n1ccc(-c2cc(F)c(Br)c(F)c2)n1 [compound 14] | – | ≤ 30% | ≤ 30% |
| O=S(=O)(c1c(Cl)cccc1Cl)n1ccc(-c2cc(F)c(Br)c(F)c2)n1 [compound 15] | – | ≤ 30% | ≤ 30% |
| O=S(=O)(c1cc(Cl)cc(Cl)c1)n1ccc(-c2cc(F)c(Br)c(F)c2)n1 [compound 16] | – | ≤ 30% | – |
| O=S(=O)(c1cccc(Cl)c1)n1ccc(-c2cc(F)c(Br)c(F)c2)n1 [compound 18] | ≤ 50% | ≤ 30% | ≤ 30% |
| Cc1cccc(S(=O)(=O)n2ccc(-c3cc(F)c(Br)c(F)c3)n2)c1 [compound 20] | ≤ 50% | ≤ 30% | ≤ 30% |
| Cc1ccc(S(=O)(=O)n2ccc(-c3cc(F)c(Br)c(F)c3)n2)cc1 [compound 21] | – | – | ≤ 30% |
| COc1ccc(S(=O)(=O)n2ccc(-c3cc(F)c(Br)c(F)c3)n2)cc1 [compound 22] | – | – | ≤ 30% |
| COc1cccc(S(=O)(=O)n2ccc(-c3cc(F)c(Br)c(F)c3)n2)c1 [compound 23] | ≤ 50% | – | ≤ 30% |
| N#Cc1cccc(S(=O)(=O)n2ccc(-c3cc(F)c(Br)c(F)c3)n2)c1 [compound 26] | – | – | ≤ 30% |
| N#Cc1ccc(S(=O)(=O)n2ccc(-c3cc(F)c(Br)c(F)c3)n2)cc1 [compound 27] | – | – | ≤ 30% |
| O=S(=O)(c1cc2ccccc2o1)n1ccc(-c2cc(F)c(Br)c(F)c2)n1 [compound 30] | ≤ 50% | – | – |
| Cn1ccc(S(=O)(=O)n2ccc(-c3cc(F)c(Br)c(F)c3)n2)n1 [compound 34] | ≤ 50% | ≤ 30% | ≤ 30% |
| Cn1cc(S(=O)(=O)n2ccc(-c3cc(F)c(Br)c(F)c3)n2)cn1 [compound 35] | ≤ 50% | ≤ 30% | ≤ 30% |
| Cn1ccnc1S(=O)(=O)n1ccc(-c2cc(F)c(Br)c(F)c2)n1 [compound 38] | ≤ 50% | ≤ 30% | ≤ 30% |
| CN(C)c1ccc(-c2ccn(S(=O)(=O)c3cccs3)n2)cc1 [compound 46] | ≤ 50% | – | ≤ 30% |
| O=S(=O)(c1ccc(Cl)s1)n1ccc(-c2cc(F)c(Br)c(F)c2)n1 [compound 47] | ≤ 50% | ≤ 30% | ≤ 30% |
| O=S(=O)(c1cccnc1Cl)n1ccc(-c2cc(F)c(Br)c(F)c2)n1 [compound 54] | ≤ 50% | – | ≤ 30% |
| O=S(=O)(c1cccnc1)n1ccc(-c2cccc(F)c2)n1 [compound 56] | ≤ 50% | ≤ 30% | ≤ 30% |
| O=S(=O)(c1cccnc1)n1ccc(-c2ccc(F)cc2)n1 [compound 57] | ≤ 50% | ≤ 30% | ≤ 30% |
| O=S(=O)(c1cccs1)n1ccc(-c2ccc3c(c2)OC(F)(F)O3)n1 [compound 63] | ≤ 50% | ≤ 30% | – |
| O=S(=O)(c1cccs1)n1ccc(-c2ccc3nonc3c2)n1 [compound 64] | ≤ 50% | ≤ 30% | – |
| O=S(=O)(c1cccs1)n1ccc(-c2ccc3ncsc3c2)n1 [compound 65] | ≤ 50% | ≤ 30% | – |
| Cc1ccc(S(=O)(=O)n2ccc(-c3cc(F)c(Br)c(F)c3)n2)o1 [compound 72] | ≤ 50% | – | – |
